Data from ChEMBL document CHEMBL4680225, “Design and development of ((4-methoxyphenyl)carbamoyl) (5-(5-nitrothiophen-2-yl)-1,3,4-thiadiazol-2-yl)amide analogues as Mycobacterium tuberculosis ketol-acid reductoisomerase inhibitors” (Eur J Med Chem, 2020).
Converted amounts (≈) assume the structure as drawn.

Each compound was assayed on Mycobacterium tuberculosis (assay: Antitubercular activity against isoniazid-resistant Mycobacterium tuberculosis clinical isolate measured after 1 week by microplate alamar blue assay). Conditions: 168 h, time 1 weeks.
Assay type: functional
`COc1ccc(NC(=S)Nc2nnc(-c3ccc([N+](=O)[O-])s3)s2)cc1` showed an MIC of 0.2 µM (≈ 0.0787 µg/mL).
Work on `NNC(=O)c1ccncc1` [ISONIAZID] yielded an MIC of 12.5 µM (≈ 1.71 µg/mL).
Work on `CC(=O)c1ccc(S(=O)(=O)Nc2nnc(-c3ccc([N+](=O)[O-])o3)s2)cc1` yielded an MIC of 12.5 µM (≈ 4.93 µg/mL).
For `COc1ccc(NC(=S)Nc2nnc(-c3ccc([N+](=O)[O-])o3)s2)cc1`, the MIC was 7.81 µM (≈ 2.95 µg/mL).
For `CC[C@@H](CO)NCCN[C@@H](CC)CO` [ETHAMBUTOL], the MIC was 7.63 µM (≈ 1.56 µg/mL).
With `O=[N+]([O-])c1ccc(-c2nnc(NC(=S)Nc3ccc(F)cc3)s2)o1` the MIC was 0.78 µM (≈ 0.285 µg/mL).
For `O=[N+]([O-])c1ccc(-c2nnc(NC(=S)Nc3ccc(Cl)cc3)s2)s1`, the MIC was 12.5 µM (≈ 4.97 µg/mL).
`CO[C@H]1/C=C/O[C@@]2(C)Oc3c(C)c(O)c4c(O)c(c(/C=N/N5CCN(C)CC5)c(O)c4c3C2=O)NC(=O)/C(C)=C\C=C\[C@H](C)[C@H](O)[C@@H](C)[C@@H](O)[C@@H](C)[C@H](OC(C)=O)[C@@H]1C` [RIFAMPIN] gave an MIC of 0.5 µM (≈ 0.411 µg/mL).
